Results as given in BindingDB's records for doi:10.1021/jm00016a010 (University of Innsbruck, 1995).

Experiment: binding affinity was evaluated by measuring the ability to displace [3H]DPDPE radioligand binding from delta opioid receptor in guinea pig brain membranes

CCCCOc1c(O)ccc2c1C13CCN(CC4CC4)C(C2)[C@]1(OC)CCC(=O)C3 (stereo not given in full) [3-butoxy-17-cyclopropylmethyl-4-hydroxy-10-methoxy-17-azatetracyclo[7.5.3.01,10.02,7]heptadeca-2(7),3,5-trien-13-one]
Ki: 42 nM

COc1c(O)ccc2c1C13CCN(CC4CC4)C(C2)[C@]1(O)CCC(=O)C3 (stereo not given in full) [17-cyclopropylmethyl-4,10-dihydroxy-3-methoxy-17-azatetracyclo[7.5.3.01,10.02,7]heptadeca-2(7),3,5-trien-13-one]
Ki: 334 nM

COc1c(O)ccc2c1C13CCN(CC4CC4)C(C2)[C@]1(OC)CCC(=O)C3 (stereo not given in full) [17-cyclopropylmethyl-4-hydroxy-3,10-dimethoxy-17-azatetracyclo[7.5.3.01,10.02,7]heptadeca-2(7),3,5-trien-13-one]
Ki: 14 nM

CCO[C@@]12CCC(=O)CC13CCN(CC1CC1)C2Cc1ccc(O)c(OC)c13 (stereo not given in full) [17-cyclopropylmethyl-10-ethoxy-4-hydroxy-3-methoxy-17-azatetracyclo[7.5.3.01,10.02,7]heptadeca-2(7),3,5-trien-13-one]
Ki: 21 nM

COc1cccc2c1[C@]13CCN(CC4CC4)[C@H](C2)[C@]1(OC)CCC(=O)C3 [Naltrindole analogue]
Ki: 61 nM
